Measurements: patent publication US20030225007A1, “Sulfonamide derivatives of 3-substituted imidazol[1,2-d]-1,2,4-thiadiazoles and 3-substituted-[1,2,4] thiadiazolo[4,5-a] benzimidazole as inhibitors of fibrin cross-linking and transglutaminases” (Apotex Inc., priority 2002, published 2003)
Like-named read-outs stand apart in the source and are kept apart here.

Columns and labels:
[1] = molecular target: T1, endogenous Factor XIII in plasma (Plasma FXIIIa) (Homo sapiens, UniProt P00488); experiment: Inactivation of endogenous Factor XIII in plasma; assay type: biochemical; settings: citrated plasma, thrombin-activated, 5 min at 37° C.
T1 construct: from tissue; host or cells: citrated plasma (desensitized by heating)
T1 sequence (P00488 39-732 limits assumed): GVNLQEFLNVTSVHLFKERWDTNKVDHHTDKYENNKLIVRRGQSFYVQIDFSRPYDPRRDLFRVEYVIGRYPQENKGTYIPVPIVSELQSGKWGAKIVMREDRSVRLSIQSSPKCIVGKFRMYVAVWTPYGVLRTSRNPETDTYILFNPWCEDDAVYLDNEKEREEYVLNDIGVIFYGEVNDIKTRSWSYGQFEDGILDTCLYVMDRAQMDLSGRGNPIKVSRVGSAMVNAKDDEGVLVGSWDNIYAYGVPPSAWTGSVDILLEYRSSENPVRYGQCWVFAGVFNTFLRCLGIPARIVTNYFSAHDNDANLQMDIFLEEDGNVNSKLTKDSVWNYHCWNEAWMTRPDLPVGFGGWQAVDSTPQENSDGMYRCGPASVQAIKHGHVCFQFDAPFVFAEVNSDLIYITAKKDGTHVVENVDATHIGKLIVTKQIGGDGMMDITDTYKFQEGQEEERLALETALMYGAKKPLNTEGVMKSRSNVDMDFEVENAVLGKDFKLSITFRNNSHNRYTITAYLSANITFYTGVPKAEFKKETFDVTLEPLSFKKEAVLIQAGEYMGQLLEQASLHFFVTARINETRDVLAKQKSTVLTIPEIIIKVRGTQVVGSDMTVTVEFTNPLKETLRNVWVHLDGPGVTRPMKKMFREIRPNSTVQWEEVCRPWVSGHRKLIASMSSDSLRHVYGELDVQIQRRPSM
Procedure: Citrated plasma (0.235 mL) was “desensitized” by heating with ethylene glycol monomethyl ether (0.235 mL, 20% solution in water) in a glass test tube at 56° C. for 4 min., as described by Lorand (Lorand, L.; Lockridge, O. M.; Campbell, L. K.; Myhrman, R.; Bruner-Lorand, J. Anal.Biochem. 1971, 44, 221-231). After cooling to 37° C., calcium chloride (20 μL, 0.4 M in 50 mM Tris-HCl pH 7.5) and inhibitor solution in 50% glycerol (59 μL) were added. Bovine thrombin (30 NIH units in 118 μL of 50 mM Tris-HCl pH 7.5 containing 20 mM CaCl2) was added and the mixture was incubated at 37° C. for 5 min.
An assay mixture composed of 0.1 M sodium borate, pH 9.0, 0.3% ethylene glycol monomethyl ether, 32 μM monodansylcadaverine, 10 mM CaCl2 and 0.08% dimethyl casein in a final volume of 1.263 mL was prepared in a spectrofluorometric cell and incubated at 37° C. for a few minutes. To assay the residual enzyme activity, 567 μL of the plasma solution was transferred to the assay mixture. The covalent incorporation of monodansylcadaverine into casein was monitored by an increase in fluorescence at λex=360 nm and λem=500 nm, as previously described (Curtis, C. G.; Lorand, L. Methods Enzymol. 1976, 45, 177-191). To determine uninhibited enzyme activity, inhibitor solution was replaced by 50% glycerol. IC50 values (inhibitor concentration resulting in 50% enzyme inactivation) were determined by plotting the percent of remaining enzyme activity against logarithm of inhibitor concentration.

[2] = molecular target: T2, Factor XIIIa (activated FXIII) (Homo sapiens, UniProt P00488); experiment: Inactivation of purified Factor XIIIa (monodansylcadaverine incorporation into dimethylcasein, fluorescence); assay type: biochemical; settings: for kinact/KI: purified Factor XIIIa, method of Kitz and Wilson, read-out: Second order rate constant for inactivation
T2 construct: purchased Enzyme Research Laboratories, Ltd
T2 sequence (P00488 39-732 limits assumed): T1 sequence (P00488 39-732 limits assumed)
In short: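 Read-out: fluorescence rise (360/500 nm) as 20 μM monodansylcadaverine is built into dimethylcasein at pH 8.0, 10 mM CaCl2. This measures activity left after a 5-min, 37° C., substrate-free exposure of thrombin-activated FXIII to inhibitor. IC50 means 50% inactivation under those conditions; rate constants by Kitz-Wilson method.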

[3] = purified activated FXIII, 50% enzyme inactivation after 5-min incubation with inhibitor at 37° C. in the absence of substrate, read-out: FXIIIa (IC50 in μM)
[4] = values without asterisk, purified FXIIIa, 5-min incubation, read-out: FXIIIa IC50 determined by method in Example 16

Structure (SMILES): O=S(=O)(NCCCCCCNc1nsc2nccn12)c1cccc2ccccc12 [1-naphthyl, N-[6-(imidazo[1,2-d][1,2,4]thiadiazol-3-ylamino)hexyl]naphthalene-1-sulfonamide]
- IC50 [1]: 8400 nM
- kinact/KI [2]: 3300 M⁻¹ s⁻¹
- IC50 [2, 3]: 0.52 µM
- IC50 [2, 4]: 0.52 µM

Structure (SMILES): O=S(=O)(Cc1ccccc1)NCCCCCCNc1nsc2nccn12 [2 / CH2Ph, N-[6-(imidazo[1,2-d][1,2,4]thiadiazol-3-ylamino)hexyl]-1-phenylmethanesulfonamide]
- IC50 [1]: 19000 nM
- IC50 [2, 4]: 7.8 µM

Structure (SMILES): O=S(=O)(NCCCCCCNc1nsc2nccn12)c1ccc(F)cc1F [2,4-diF-Ph, 2,4-difluoro-N-[6-(imidazo[1,2-d][1,2,4]thiadiazol-3-ylamino)hexyl]benzenesulfonamide]
- IC50 [1]: 6100 nM
- IC50 [2, 3]: 1.4 µM
- IC50 [2, 4]: 1.4 µM

Structure (SMILES): O=S(=O)(NCCCCCCNc1nsc2nccn12)c1ccc(OC(F)(F)F)cc1 [4-OCF3-Ph, N-[6-(imidazo[1,2-d][1,2,4]thiadiazol-3-ylamino)hexyl]-4-trifluoromethoxybenzenesulfonamide]
- IC50 [1]: 31000 nM
- IC50 [2, 4]: 1.6 µM

Structure (SMILES): O=C(O)CN(CCCCCCNS(=O)(=O)c1ccccc1[N+](=O)[O-])c1nsc2nccn12 [H / CH2CO2H / 2-NO2-Ph, N-imidazo[1,2-d][1,2,4]thiadiazol-3-yl-N-(6-{[(2-nitrophenyl)sulfonyl]amino}hexyl)glycine]
- kinact/KI [2]: 4500 M⁻¹ s⁻¹
- IC50 [2, 3]: 0.62 µM
- IC50 [2, 4]: 0.62 µM
